Here are results for 1 compound from patent US3991052A (priority 1975, dated 1976).

SMILES strings stand for the structures. ≈ marks a conversion by molar mass, not a printed value. Bounds are passed on as bounds.

For one series, the system named is Serratia marcescens SE3. Description: MIC, standard agar-dilution assay. In kind it is cell-based.
The next series concerns Erwinia amylovora. Description: MIC, standard agar-dilution assay. In kind it is cell-based.
Another series relates to Ceratocystis ulmi. Description: MIC, standard agar-dilution assay. The series is classed as cell-based.
In series [1] the test system is Pseudomonas aeruginosa X239. Kind of series: MIC, standard agar-dilution assay. In kind it is cell-based.
A further series relates to Blastomyces dermatitidis. Description: MIC, standard agar-dilution assay. In kind it is cell-based.
Another series concerns Escherichia coli EC14. Kind of series: MIC, standard agar-dilution assay. The series is classed as cell-based.
The test system of series [2] is Pseudomonas solanacearum X185. Description: microbe, parasite or virus in culture. The series is classed as cell-based. The settings on record: Ralstonia solanacearum.
For series [3], the system named is Trichophyton mentagrophytes 27. Kind of series: MIC, standard agar-dilution assay. In kind it is cell-based.
A further series has as its system Candida tropicalis Z17. Kind of series: MIC, standard agar-dilution assay. The series is classed as cell-based.
Another series relates to Aspergillus flavus E. Description: MIC, standard agar-dilution assay. The series is classed as cell-based.
The test system of another series is C. albicans. Kind of series: dermal C. albicans infection in rabbits, topical treatment. In kind it is in vivo. The conditions noted are these: ten days treatment with 1% solution in propylene glycol.
In series [4] the test system is Staphylococcus aureus 3055. Kind of series: MIC, standard agar-dilution assay. The series is classed as cell-based.
A further series relates to Proteus morganii PR15. Description: MIC, standard agar-dilution assay. The series is classed as cell-based. The conditions noted are these: Morganella morganii.
In the next series the test system is Candida albicans. Kind of series: standard disc-diffusion assay. The series is classed as cell-based. (In agar diffusion tests the substance spreads into inoculated agar from a disc or well.)
The test system of another series is Cryptococcus neoformans. Description: MIC, standard agar-dilution assay. The series is classed as cell-based.
Series [5] has as its system Bordetella bronchiseptica 16. Description: MIC, standard agar-dilution assay. The series is classed as cell-based.
Series [6] concerns Staphylococcus aureus 3074. Description: MIC, standard agar-dilution assay. The series is classed as cell-based.
The test system of series [7] is Streptococcus faecalis X66. Description: MIC, standard agar-dilution assay. The conditions noted are these: Enterococcus faecalis. In kind it is cell-based.
A further series deals with Salmonella typhimurium. Kind of series: MIC, standard agar-dilution assay. The settings on record: Salmonella enterica. The series is classed as cell-based.
Series [8] deals with Citrobacter freundii MX CF17. Kind of series: MIC, standard agar-dilution assay. In kind it is cell-based. The conditions noted are these: MXCF17.
Another series has as its system Salmonella typhosa SA12. Description: MIC, standard agar-dilution assay. The series is classed as cell-based. The conditions noted are these: Salmonella enterica.
In series [9] the test system is Klebsiella pneumoniae KL14. Description: MIC, standard agar-dilution assay. The series is classed as cell-based.
Series [10] is described as follows: toxicity (LD50) in mice, intraperitoneal. The conditions noted are these: mouse, in vivo, ip, intraperitoneally.
The next series has as its system Histoplasma capsulatum. Description: microbe, parasite or virus in culture. The series is classed as cell-based.

With `COC1c2cc(Cl)c(O)cc2ON2C(=O)C3NC(=O)C12SS3` (stereo not drawn), the MIC was above 100 µg/mL against Serratia marcescens SE3; 6.25 µg/mL (≈ 17.3 µM) in the series with Erwinia amylovora; 12.5 µg/mL (≈ 34.6 µM) with Ceratocystis ulmi; above 100 µg/mL in series [1]; 10 µg/mL (≈ 27.7 µM) against Blastomyces dermatitidis; above 100 µg/mL in the series on Escherichia coli EC14. Besides, the MIC in series [2] was above 100 µg/mL; in series [3], 25 µg/mL (≈ 69.3 µM); in the series on Candida tropicalis Z17 it was above 100 µg/mL; in the series with Aspergillus flavus E, 25 µg/mL (≈ 69.3 µM); in series [4] it was 3.12 µg/mL (≈ 8.65 µM); in the series on Proteus morganii PR15 it was above 100 µg/mL. The MIC is below 0.156 µg/mL with Cryptococcus neoformans; 50 µg/mL (≈ 139 µM) in series [5]; 0.78 µg/mL (≈ 2.16 µM) in series [6]; above 100 µg/mL in series [7]; above 100 µg/mL against Salmonella typhimurium; above 100 µg/mL in series [8]. Moreover, the MIC was above 100 µg/mL against Salmonella typhosa SA12, above 100 µg/mL in [9] and 10 µg/mL (≈ 27.7 µM) in the series on Histoplasma capsulatum. For the same compound, the “lesions caused by a dermal C. albicans infection” value with C. albicans was “reduced in severity and size”. Besides, the “amount inhibiting Candida albicans” value in the series with Candida albicans is listed as “less than 0.312 mcg per disc”. Moreover, in series [10], the LD50 (in general, the dose at which mortality reaches 50%) stood at 106 mg/kg.
